# Patent US9562035B2, “Benzamide derivative useful as FASN inhibitors for the treatment of cancer” (Janssen Pharmaceutica NV, priority 2013, dated 2017)
# Like-named read-outs stand apart in the source and are kept apart here.
# Legend:
# Assay type in all cases: cell-based
# [1] = tested on: PC-3M-Luc-C6 prostate cells; experiment: In Vitro PC-3M-Luc-C6 Prostate Cell Proliferation Assay in Lipid Reduced Medium; settings: read-out: PC-3M-Luc-C6 Cells pIC50 (μM) (converted), lipid reduced serum, 96 h
# Procedure: PC-3M-Luc-C6 prostate cells were obtained from Xenogen Corporation. Cells were maintained in MEM supplemented with 10% Fetal Calf Serum (FCS, Hyclone), 2 mM glutamine, 1 mM sodium pyruvate, 1% BME vitamins (available from for example, Sigma Aldrich), 0.1 mM non Essential Amino Acid and 50 μg/ml Gentamicin. The cells were passaged twice a week.
# 1000 PC-3M-Luc-C6 prostate cells (Xenogen) were seeded in a 384-well black with clear bottom plate (costar 3712BC) in 40 μl MEM, 10% LRS (Hyclo ne), 50 μg/ml Gentamicin, 2 mM Glutamine, 1 mM Sodium pyruvaat, 1% BME vitamins and 0.1 mM non Essential Amino Acid and incubated at 37° C., 5% CO2. The next day 10 μl test compound/DMSO diluted in medium was added (3E-5M, 1E-5M, 3E-6M, 1E-6M, 3E-7M, 1E-7M, 3E-8M, 1E-8M final concentration). Compounds were tested in duplicate. After 96 h incubation at 37° C., 5% CO2 25 μl ATP-glow mix was added. The plate was incubated for 30 min at 37° C. and luminescence was measured with the Envision.
# (§1) pIC50 values were calculated as follows. Raw data generated by the instruments were normalized to % Controlmin values, which were calculated as: % Controlmin=100*(x−mLC)/(mHC−mLC),
# (§2) where mLC and mHC are the means of the low control wells and high control wells on the plate, after manual exclusion of outliers. The relation between the % Controlmin values and concentration was fitted to a 4-parameter logistic curve using a non-linear least squares regression method to determine the pIC50 value. Outlying data points were excluded manually to get a correct fit. The pIC50 corresponds to −log 10(IC50), if the IC50 is expressed in molar units (http://www.ncbi.nlm.nih.gov/books/NBK91994). The IC50 parameter was always determined by non-linear regression, but one or more of the other parameters may have been held fixed on a relevant input value, such as 0 for the bottom values.
# (§3) For dose response curves with FASN inhibitors in LNCaP_Vancouver or PC-3M-Luc_C6 cells the curves bottom out around 30 to 40% of the control value. A standard fit PL2, forcing the lower bound to this level was used.
# (§4) Representative compounds of the present invention were tested according to the procedure as described in Biological Example 4a and 4b above, with results as listed in Table BIO-4, below.
# A2780 ovarian cells = experiment: A2780 Ovarian Cell Proliferation Assay in Lipid Reduced Medium, without Palmitate; settings: Homo sapiens
# Summary of the method: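 A2780 cells were seeded in 10% FCS medium and switched next day to 10% lipid-reduced serum without palmitate. Compounds at 0.01–30 μM were added with 0.2% DMSO, 0.2% fatty-acid-free BSA and 0.25% ethanol final. After 96 h, MTT absorbance at 544 nm was normalized to plate controls, and IC50/pIC50 came from a 4-parameter logistic fit.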
# [2] = tested on: LNCaP_Vancouver prostate cells; experiment: In Vitro LNCaP Vancouver Prostate Cell Proliferation Assay in Lipid Reduced Medium; settings: lipid reduced serum, 96 h, read-out: Vancouver Cells pIC50 (converted)
# Procedure: LNCaP_Vancouver prostate cells were obtained from the Vancouver Prostate Cancer Centre. Cells were maintained in RPMI-1640, 10% Fetal Calf Serum (FCS, Hyclone), 2 mM glutamine and 50 μg/ml Gentamicin.
# For the proliferation experiment 1500 LNCaP_Vancouver cells per well were seeded in a 384-well black with clear bottom plate (costar 3712BC) in 40 μl RPMI-1640, 10% Lipid reduced serum (LRS, Hyclone), 50 μg/ml Gentamicin and 2 mM Glutamine and incubated at 37° C., 5% CO2. The next day 10 μl of test compound/DMSO diluted in medium was added (3E-5M, 1E-5M, 3E-6M, 1E-6M, 3E-7M, 1E-7M, 3E-8M, 1E-8M final concentration). Compounds were tested in duplicate. After 96 h incubation at 37° C., 5% CO2 25 μl ATP-glow mix was added. The plate was incubated for 30 min at 37° C. and luminescence was measured with the Envision.
# as §1, §2, §3, §4
# [3] = A2780, lipid reduced medium, without palmitate, 96 h, MTT, read-out: Proliferation A2780 w/o Palmitate pIC50 (converted)
Compound,IC50 [1] [µM],IC50 (A2780 ovarian cells; [3]) [µM],IC50 [2] [nM],"IC50 (A2780 ovarian cells; A2780, 96 h, read-out: Proliferation A2780 w/o Palmitate pIC50 (μM) (converted)) [µM]"
"CC(C)N(C)c1ccc(C(=O)N2CCC(c3ccc(-c4cnn(C)c4)cc3)CC2)cc1NC(=O)c1ccc(Cl)nc1 [Compound 274, 6-chloro-N-(2-(isopropyl(methyl)amino)-5-(4-(4-(1-methyl-1H-pyrazol-4-yl)phenyl)piperidine-1-carbonyl)phenyl)nicotinamide]",0.776,~0.302,1950,
"CN(C)c1ccc(C(=O)N2CCC(c3ccc(-c4cnn(C)c4)cc3)CC2)cc1NC(=O)c1ccc(Cl)nc1 [Compound 275, 6-chloro-N-(2-(dimethylamino)-5-(4-(4-(1-methyl-1H-pyrazol-4-yl)phenyl)piperidine-1-carbonyl)phenyl)nicotinamide]",0.12,0.1,692,
"CC(C)Nc1ccc(C(=O)Nc2cc(C(=O)N3CCC(c4ccc(-c5cnn(C)c5)cc4)CC3)ccc2N(C)C(C)C)cn1 [Compound 276, N-(2-(isopropyl(methyl)amino)-5-(4-(4-(1-methyl-1H-pyrazol-4-yl)phenyl)piperidine-1-carbonyl)phenyl)-6-(isopropylamino)nicotinamide]",0.49,~0.257,1380,
"COCCN(C)c1ccc(C(=O)N2CCC(c3ccc(-c4cnn(C)c4)cc3)CC2)cc1NC(=O)C1CC1 [Compound 278, N-(2-((2-methoxyethyl)(methyl)amino)-5-(4-(4-(1-methyl-1H-pyrazol-4-yl)phenyl)piperidine-1-carbonyl)phenyl)cyclopropanecarboxamide]",2.14,1.78,6170,
"CC(C)Nc1ccc(C(=O)Nc2cc(C(=O)N3CCC(c4ccc(-c5cnn(C)c5)cc4)CC3)ccc2N(C)C)cn1 [Compound 280, N-(2-(dimethylamino)-5-(4-(4-(1-methyl-1H-pyrazol-4-yl)phenyl)piperidine-1-carbonyl)phenyl)-6-(isopropylamino)nicotinamide]",0.0724,0.0776,372,
"COCCN(C)c1ccc(C(=O)N2CCC(c3ccc(-c4cnn(C)c4)cc3)CC2)cc1NC(=O)c1ccc(NC(C)C)nc1 [Compound 281, 6-(isopropylamino)-N-(2((2-methoxyethyl)(methyl)amino)-5-(4-(4-(1-methyl-1H-pyrazol-4-yl)phenyl)piperidine-1-carbonyl)phenyl)nicotinamide]",~0.776,0.417,~1350,
"COCCNc1ccc(C(=O)N2CCC(c3ccc(-c4cnn(C)c4)cc3)CC2)cc1NC(=O)c1ccc(NC(C)C)nc1 [Compound 282, 6-(isopropylamino)-N-(2-((2-methoxyethyl)amino)-5-(4-(4-(1-methyl-1H-Pyrazol-4-yl)phenyl)piperidine-1-carbonyl)phenyl)nicotinamide]",0.17,0.209,1020,
"CC(C)Nc1ccc(C(=O)Nc2cc(C(=O)N3CCC(c4ccc(-c5cnn(C)c5)cc4)CC3)ccc2NC2CC2)cn1 [Compound 283, N-(2-(cyclopropylamino)-5-(4-(4-(1-methyl-1H-pyrazol-4-yl)phenyl)piperidine-1-carbonyl)phenyl)-6-(isopropylamino)nicotinamide]",0.245,0.363,1050,
"CC(C)Nc1ccc(C(=O)Nc2cc(C(=O)N3CCC(c4ccc(-c5cnn(C)c5)cc4)CC3)ccc2NC(C)C)cn1 [Compound 284, 6-(isopropylamino)-N-(2-(isopropylamino)-5-(4-(4-(1-methyl-1H-pyrazol-4-yl)phenyl)piperidine-1-carbonyl)phenyl)nicotinamide]",0.195,~0.316,1020,
"CC(C)Nc1ccc(C(=O)Nc2cc(C(=O)N3CCC(c4ccc(-c5cnn(C)c5)cc4)CC3)ccc2N)cn1 [Compound 285, N-(2-amino-5-(4-(4-(1-methyl-1H-pyrazol-4-yl)phenyl)piperidine-1-carbonyl)phenyl)-6-(isopropylamino)nicotinamide]",0.126,0.0589,~537,
"COCCNc1ccc(C(=O)N2CCC(c3ccc(-c4cnn(C)c4)cc3)CC2)cc1NC(=O)C1CC1 [Compound 286, N-(2-((2-methoxyethyl)amino)-5-(4-(4-(1-methyl-1H-pyrazol-4-yl)phenyl)piperidine-1-carbonyl)phenyl)cyclopropanecarboxamide]",1.82,0.427,4070,
"CC(C)Nc1ccc(C(=O)Nc2cc(C(=O)N3CCC(c4ccc(-c5cnn(C)c5)cc4)CC3)ccc2N(C)C2CC2)cn1 [Compound 287, N-(2-(cyclopropyl(methyl)amino)-5-(4-(4-(1-methyl-1H-pyrazol-4-yl)phenyl)piperidine-1-carbonyl)phenyl)-6-(isopropylamino)nicotinamide]",0.186,0.676,977,
"CN(c1ccc(C(=O)N2CCC(c3ccc(-c4cnn(C)c4)cc3)CC2)cc1NC(=O)C1CC1)C1CC1 [Compound 288, N-(2-(cyclopropyl(methyl)amino)-5-(4-(4-(1-methyl-1H-pyrazol-4-yl)phenyl)piperidine-1-carbonyl)phenyl)cyclopropanecarboxamide]",3.09,5.13,~9770,
"Cc1ccc(C(=O)N2CCC(c3ccc(-c4cnn(C)c4)cc3)CC2)cc1NC(=O)c1ccc(NC(C)C)nc1 [Compound #32, 6-(isopropylamino)-N-(2-methyl-5-(4-(4-(1-methyl-1H-pyrazol-4-yl)phenyl)piperidine-1-carbonyl)phenyl)nicotinamide]",0.01,,93.3,0.0135
"Cc1ccc(C(=O)N2CC(c3ccc(-c4cnn(C)c4)cc3)C2)cc1NC(=O)c1ccc(N2CCOCC2)nc1 [Compound #66, N-(2-methyl-5-(3-(4-(1-methyl-1H-pyrazol-4-yl)phenyl)azetidine-1-carbonyl)phenyl)-6-morpholinonicotinamide]",~0.00813,~0.0229,29.5,
"Cc1ccc(C(=O)N2CC(c3ccc(-c4cnn(C)c4)cc3)C2)cc1NC(=O)c1ccc(N(C)C(C)C)nc1 [Compound #78, 6-(isopropyl(methyl)amino)-N-(2-methyl-5-(3-(4-(1-methyl-1H-pyrazol-4-yl)phenyl)azetidine-1-carbonyl)phenyl)nicotinamide]",~0.00871,~0.0295,~34.7,
"CNc1ccc(C(=O)N2CCC(c3ccc(-c4cnn(C)c4)cc3)CC2)cc1NC(=O)c1ccc(NC(C)C)nc1 [Compound #279, 6-(isopropylamino)-N-(5-(4-(4-(1-methyl-1H-pyrazol-4-yl)phenyl)piperidine-1-carbonyl)-2-(methylamino)phenyl)nicotinamide]",0.0355,0.0417,263,
